“Also recorded” adds a separate entry of the source. Read-outs that look alike come from different tables or passages of the source. Non-standard residues stand in square brackets, D forms with d. Residues, ends and D or L forms follow the SMILES beside them.
What was measured:
DCLK1 isoform 4 / pGSN = assay: ELISA binding of plasma gelsolin (pGSN) to DCLK1 isoform 4; parameters: species or system human; details: for effect of peptide on pGSN binding to DCLK1 isoform 4: peptide 20 mg/well (so in the source), pGSN at 2 µg/ml
Procedure: (§1) Polystyrene microtitre Immulon 2HB plate was coated with freshly prepared (400 ng/50 ml) DCLK1 isoform 4 ([…]) in 0.1 M NaHCO3, pH 8.6, overnight at 4 C. After blocking with 1% gelatin in TTBS at RT, different concentrations of gelsolin or FGF19 were added (2 mg/50ul/well, 1 mg/well, 0.5 mg/well, and 0.25 mg/well at […], proteins diluted in TTBS), and incubated at RT. To study the competitive ability of peptides, we used 20 mg/well of either D-peptide 1, D-peptide 3, D-peptide 5, or the C-terminal peptide antigen for the mAb CBT-15. After incubation at RT, plates were washed with TTBS, and bound gelsolin or FGF19 was detected. Bound plasma gelsolin (ab233671; Abcam, Waltham, MA) was immunodetected with anti-gelsolin Ab (ab11081; Abcam, Waltham, MA) or FGF19 (969-FG-025; Bio-Techne, Minneapolis, MN) immunodetected by anti-FGF19 (sc-390621; Santa Cruz Biotechnology, Dallas, TX). Detection was by alkaline phosphatase-conjugated goat anti-mouse IgG (ab97020; Abcam, Waltham, MA) followed by 1-STEP NBT/BCIP substrate (#34042; ThermoFisher Scientific, Waltham, MA) and quantified at 450 nm on a microplate reader.

[1] = tested on: PDAC cells (AsPC-1 and CAPAN-1); assay: Proliferation assay (MTT); format: cell-based; details: OD550, in vitro
Procedure: (§2) AsPC-1 and CAPAN-1 cells were grown as previously described with varying concentrations of candidate D-peptides[40]. Afterward, we treated cells with TACS MTT Reagent (RND Systems) at 37 C until a dark crystalline precipitate within the cells was observed. NH4OH in DMSO was added and incubated for 10 min while protected from light. We determined the OD550 and averaged it as a percentage of cell proliferation.

[2] = tested on: AsPC-1 pancreatic cancer cells; assay: Colony formation assay (clonogenicity), AsPC-1; format: cell-based; details: blinded study
DCLK1 isoform 1 = assay: Crossreactivity with DCLK1 isoform 1; format: binding, human
Capan-1 cells = assay: PDAC spheroid self-renewal assay, Capan-1; format: cell-based; details: Matrigel 7 days or 0.3% agar 3 weeks
Procedure: (§3) AsPC-1 and CAPAN-1 cancer cells were treated with candidate D-peptides or vehicle control and suspended in growth factor-reduced Matrigel™ for 7 days or 0.3% agar for 3 weeks and monitored for spheroid growth. The size and number of spheroids were analyzed, counted, and then compared between the treatment groups[41],[42].

AsPC-1 xenografts = assay: AsPC-1 xenograft tumor growth; format: in vivo; details: for gross inspection of excised xenografts: AsPC-1 flank xenografts, excised after treatment until day 36
Procedure: Athymic nude (Foxn1^nu/Foxn1^nu) mice were purchased from the Jackson Laboratory (Bar Harbor, Maine) and housed in pathogen-free conditions. AsPC-1 cells (1 × 10^7) were injected subcutaneously into the flanks of 4- to 6-week-old mice (n = 3/group). Tumors were measured using a caliper and the volume was calculated as (length × width^2) × 0.5. Once tumors achieved an average size of ~ 100 mm^3 mice were injected via intraperitoneal injection (10 mg/kg, […]) with selected D-peptides. Treatments were continued every three days until day 36. Xenografts were then excised and evaluated by gross inspection.

[3] = tested on: DCLK1 isoform 4 / mAb CBT-15; assay: Competition assay: mAb CBT-15 binding to DCLK1 isoform 4; parameters: species or system human; details: mean ± SEM; *p < 0.01
DCLK1 isoform 4 / FGF19 = assay: ELISA binding of FGF19 to DCLK1 isoform 4; parameters: species or system human
Procedure: as §1

[4] = tested on: PDAC cell lines AsPC-1 and Capan-1; assay: Functional bioassays in PDAC cell lines (overall activity); format: cell-based; details: summary of bioassays in AsPC-1 and Capan-1
Procedure: as §2, §3

[5] = Assessment of DCLK1 D-peptide toxicity in mice; format: in vivo; details: athymic mice; escalating doses every three days, 750 µg increasing by 500 µg to 4000 µg/mouse; vs saline-treated controls
Procedure: Supplemental Figure 1. Assessment of DCLK1 D-peptide Toxicity in Mice. Mice received escalating doses of D-peptide 1 every three days, starting with 750 µg (equivalent to 210 nM in blood and extravascular fluid) and increasing by 500 µg per dose, reaching a maximum of 4000 µg/mouse. Monitored toxicity indicators included soft feces, urine stains, depression, rough coat, nasal/ocular discharge, hunching, and body weight changes. […] Major organs were collected, and serum was stored for further biochemical analysis.

AsPC-1 cells = assay: PDAC spheroid self-renewal assay, AsPC-1; format: cell-based; details: Matrigel 7 days or 0.3% agar 3 weeks
Procedure: as §3

[6] = tested on: Capan-1 pancreatic cancer cells; assay: Colony formation assay (clonogenicity), Capan-1; format: cell-based; details: blinded study
DCLK1 isoform 4 = molecular target: T1, DCLK1 isoform 4 (Homo sapiens, UniProt O15075); assay: SPR analysis of DCLK1 isoform 4 with Gelsolin and FGF19; format: binding; details: for Kinetic 1:1 Ave Kd: kinetic 1:1, average (dissociation rate)
T1 sequence (O15075 687-740 limits assumed): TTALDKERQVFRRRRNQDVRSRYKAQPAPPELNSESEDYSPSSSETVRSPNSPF
Procedure: Purification of human DCLK1 isoform 4 was performed at the University of Oklahoma Protein Production and Characterization Core Facility (Norman, OK) using an E. coli strain BL21(DE3) pLPP containing the pET19-DCLK1 isoform 4 plasmid. For Bio-layer Interferometry (BLI) experiments, a C-terminal DCLK1 isoform 2/4 His-tagged protein was used (NovoPro, Shanghai, China). All His-tagged proteins were dialyzed using PBS/glycerol to remove imidazole.

plasma gelsolin = molecular target: T2, plasma gelsolin (UniProt P06396 28-782); assay: SPR; format and conditions not told in the text shown (Fig. 4F, G; Suppl. Table 1); details: both partners purified
T2 construct: plasma gelsolin (pGSN), bought protein; The source is told for the ELISA only; also called pGSN; source: bought: Abcam (ab233671)
T2 sequence (P06396 28-782): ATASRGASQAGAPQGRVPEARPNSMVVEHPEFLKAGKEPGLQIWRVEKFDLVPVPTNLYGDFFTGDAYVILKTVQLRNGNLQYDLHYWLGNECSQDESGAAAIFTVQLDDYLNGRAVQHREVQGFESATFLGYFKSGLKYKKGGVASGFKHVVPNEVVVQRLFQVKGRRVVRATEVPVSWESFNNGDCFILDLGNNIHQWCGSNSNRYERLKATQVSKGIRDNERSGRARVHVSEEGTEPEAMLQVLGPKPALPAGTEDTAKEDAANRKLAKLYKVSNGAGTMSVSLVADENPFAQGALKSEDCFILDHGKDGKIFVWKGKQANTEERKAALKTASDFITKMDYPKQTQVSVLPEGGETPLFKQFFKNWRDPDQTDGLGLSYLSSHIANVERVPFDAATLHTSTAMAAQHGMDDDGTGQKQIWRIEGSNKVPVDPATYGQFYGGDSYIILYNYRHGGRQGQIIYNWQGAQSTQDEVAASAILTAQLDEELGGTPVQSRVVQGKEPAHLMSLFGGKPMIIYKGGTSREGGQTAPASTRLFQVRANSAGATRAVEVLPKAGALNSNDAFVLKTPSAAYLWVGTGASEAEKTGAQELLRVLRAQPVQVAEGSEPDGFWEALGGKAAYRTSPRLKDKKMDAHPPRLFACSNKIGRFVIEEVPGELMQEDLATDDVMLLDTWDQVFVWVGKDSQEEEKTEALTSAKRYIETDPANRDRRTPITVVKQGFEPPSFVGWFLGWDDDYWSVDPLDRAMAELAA

[7] = kinetic 1:1, average, read-out: Kinetic 1:1 Ave KD

NCC(=O)N[C@H](Cc1c[nH]c2ccccc12)C(=O)N[C@H](Cc1ccc(O)cc1)C(=O)NCC(=O)N[C@H](Cc1c[nH]c2ccccc12)C(=O)NCC(=O)N[C@H](CC(=O)O)C(=O)N[C@H](CC(=O)O)C(=O)O [D-peptide 1] (H-G[dW][dY]G[dW]G[dD][dD]-OH; N-terminus and C-terminus assumed)
effect of peptide on pGSN binding to DCLK1 isoform 4 (DCLK1 isoform 4 / pGSN): did not block the PPI interaction but seemed to improve pGSN binding to DCLK1; also recorded: enhances pGSN binding | effect of peptide on pGSN binding to DCLK1 isoform 4 (DCLK1 isoform 4 / pGSN; listed as Dpeptide 1): binds a distinct site and allosterically enhances pGSN association | PDAC cell proliferation [1]: modest in vitro proliferation decreases | colony formation (clonogenicity) [2]: significantly reduced colony formation (clonogenicity) at low micromolar concentrations | crossreactivity with isoform 1 (DCLK1 isoform 1): minimal crossreactivity with isoform 1 | spheroid formation / self-renewal capacity (Capan-1 cells): markedly impaired self-renewal capacity | gross inspection of excised xenografts (AsPC-1 xenografts): no visible necrosis or hemorrhage was observed | gross inspection of excised xenografts (AsPC-1 xenografts; listed as Dpeptide 1): no gross necrosis, hemorrhage, or cavitation | reduction of tumor volume compared to controls (AsPC-1 xenografts; AsPC-1 xenografts, athymic mice, 10 mg/kg intraperitoneal, until day 36, control peptide D-peptide 3): 60% | tumor size/growth compared to control (AsPC-1 xenografts; AsPC-1 xenografts, every three days for six doses, 36 days, control D-peptide 3 n = 8, D-peptide 1 n = 9, *p < 0.01): significantly reduced tumor size compared to control | general toxicity during xenograft treatment (AsPC-1 xenografts; flank xenograft model): without general toxicity in non–DCLK1–expressing tissues | competition with mAb CBT-15 for DCLK1 isoform 4 binding [3]: interacts at a site distinct from CBT-15’s binding site; also recorded: its epitope is distinct from that of mAb CBT-15 | effect of peptide on FGF19 binding to DCLK1 isoform 4 (DCLK1 isoform 4 / FGF19; peptide 20 mg/well (so in the source)): weak effect with FGF19-DCLK1 association | potency/activity in the bioassays [4]: high potency in the bioassays | toxicity [5]: no adverse effects compared to saline-treated controls; also recorded: no apparent toxicity | spheroid formation / self-renewal capacity (AsPC-1 cells): markedly impaired self-renewal capacity | colony formation (clonogenicity) [6]: significantly reduced colony formation (clonogenicity) at low micromolar concentrations

FGF19: FGF19 (969-FG-025; Bio-Techne)
FGF19 binding to DCLK1 isoform 4 (DCLK1 isoform 4 / FGF19): bound to DCLK1 isoform 4 similarly to pGSN | Kinetic 1:1 Ave Ka (DCLK1 isoform 4; kinetic 1:1, average): 5.09E+03 M^-1s^1 | Kinetic 1:1 Ave Kd (DCLK1 isoform 4): 9.13E-03 s^1 | Kd (DCLK1 isoform 4; [7]): 1790 nM | Kd (DCLK1 isoform 4; steady-state, average, read-out: Steady-state Affinity Ave KD): 970 nM

Gelsolin
concentration of maximum pGSN binding to DCLK1 isoform 4 (DCLK1 isoform 4 / pGSN; DCLK1-coated plates, pGSN gradient, R^2 of 0.94): 2 µg/ml | pGSN binding to DCLK1 isoform 4 (DCLK1 isoform 4 / pGSN; pGSN gradient): consistent, linear binding | Kinetic 1:1 Ave Ka (DCLK1 isoform 4; kinetic 1:1, average): 5.48E+03 M^-1s^1 | Kinetic 1:1 Ave Kd (DCLK1 isoform 4): 5.47E-04 s^1 | Kd (DCLK1 isoform 4; [7]): 99 nM

B1: human DCLK1 isoform 4 (beta-short) (natural protein, UniProt O15075-4 1-433, looked up)
chain: MLELIEVNGTPGSQLSTPRSGKSPSPSPTSPGSLRKQRSSQHGGSSTSLASTKVCSSMDENDGPGEEVSEEGFQIPATITERYKVGRTIGDGNFAVVKECVERSTAREYALKIIKKSKCRGKEHMIQNEVSILRRVKHPNIVLLIEEMDVPTELYLVMELVKGGDLFDAITSTNKYTERDASGMLYNLASAIKYLHSLNIVHRDIKPENLLVYEHQDGSKSLKLGDFGLATIVDGPLYTVCGTPTYVAPEIIAETGYGLKVDIWAAGVITYILLCGFPPFRGSGDDQEVLFDQILMGQVDFPSPYWDNVSDSAKELITMMLLVDVDQRFSAVQVLEHPWVNDDGLPENEHQLSVAGKIKKHFNTGPKPNSTAAGVSVIATTALDKERQVFRRRRNQDVRSRYKAQPAPPELNSESEDYSPSSSETVRSPNSPF
notes: For the library screen the protein was labelled with biotin (NHS-LC-biotin); source: E. coli BL21(DE3) pLPP with the pET19-DCLK1 isoform 4 plasmid, purified
Kd (plasma gelsolin): ~100 nM
